Target: T1, human PDHK2 (hPDHK2) (Homo sapiens, UniProt Q15119)
T1 construct: made in house; host or cells: Escherichia coli BL21(DE3), pET-17b vector
Assay: Inhibitory action of PDHK2 activity (residual PDH activity, NADH absorbance at 340 nm)
Assay type: biochemical
Settings: PDH/hPDHK2 complex, PDHK reaction 45 min at room temperature
Procedure: In the case of human PDHK2 (hPDHK2, NCBI Reference Database Accession number NM_002611.4), modified hPDHK2 cDNA wherein FLAG-Tag sequence was added to the N terminus of hPDHK2 cDNA clone (pReceiver-M01/PDK2-GeneCopoeia) as the base was prepared by polymerase chain reaction (PCR) and ligated to the NdeI/EcoRI site of pET-17b vector (Merck KGaA, Catalog Number 69663-3). The recombinant construct was transformed into Escherichia coli DH5α. The recombinant clones were identified, and plasmid DNA was isolated and subjected to the DNA sequence analysis. One clone which had the expected nucleic acid sequence was selected for expression work.
For expression of hPDHK2 activity, Escherichia coli strain BL21(DE3) cells (Merck KGaA, Catalog Number 69450-4) were transformed with the pET17b vector containing modified hPDHK2 cDNA. The Escherichia coli were grown to an optical density 0.6 ([…]) at 30° C. Protein expression was induced by the addition of 500 μmol/L isopropyl-β-thiogalactopyranoside. The Escherichia coli were cultured at 20° C. for 17-18 hr and harvested by centrifugation. The harvested Escherichia coli was resuspended in a suspension buffer (20 mmol/L HEPES-NaOH, 500 mmol/L sodium chloride, 1% ethylene glycol, 0.1% Pluronic (registered trademark) F-68 (pH 8.0), cOmplete, EDTA-free (Roche) (pH 8.0)), and disrupted by a microfluidizer M-110H (MIZUHO INDUSTRIAL CO., LTD.). The precipitate was removed by centrifugation and the supernatant was added to DDDDK-tagged Protein PURIFICATION GEL (MEDICAL & BIOLOGICAL LABORATORIES CO., LTD., Code No. 3329). DDDDK-tagged Protein PURIFICATION GEL was washed with a washing buffer (20 mmol/L HEPES-NaOH, 500 mmol/L sodium chloride, 1% ethylene glycol, 0.1% Pluronic F-68 (pH 8.0)) and the bound protein was eluted with elution buffer 1 (20 mmol/L HEPES-NaOH, 100 μg/mL peptide (amino acid sequence DYKDDDDK) (SEQ ID NO: 1), 500 mmol/L sodium chloride, 1% ethylene glycol, 0.1% Pluronic F-68 (pH 8.0)). The eluted fractions containing FLAG-Tagged protein were pooled, concentrated by an ultrafiltration method, added to a gel filtration column (HiLoad 26/60 Superdex 200 (GE Healthcare Life Sciences, Code No. 17-1070-01)), and eluted with elution buffer 2 (20 mmol/L HEPES-NaOH, 150 mmol/L sodium chloride, 0.5 mmol/L ethylenediaminetetraacetic acid (EDTA), 1% ethylene glycol, 0.1% Pluronic F-68 (pH 8.0)). The eluted fractions were pooled and preserved at −80° C.
PDH (porcine heart PDH complex, Sigma P7032) and 0.5 μg/mL hPDHK2 were mixed in an assay buffer (50 mmol/L 3-morpholinopropanesulfonic acid (pH 7.0), 20 mmol/L dipotassium hydrogen phosphate, 60 mmol/L potassium chloride, 2 mmol/L magnesium chloride, 0.4 mmol/L EDTA, 0.2% poloxamer, 2 mmol/L dithiothreitol) so that the final concentration of PDH was 0.025 U/mL, and the mixture was incubated at 4° C. overnight to obtain a PDH/hPDHK2 complex solution.
PDH was mixed with the assay buffer so that the final concentration was 0.025 U/mL, and the mixture was incubated at 4° C. overnight to prepare a PDH solution.
The test compounds were diluted with DMSO. To measure an inhibitory action of the test compound on the PDHK activity in the PDH/hPDHK2 complex solution, PDH/hPDHK2 complex solution (20 μL), test compound (1.5 μL) and 1.06 μmol/L ATP (diluted with assay buffer) (8.5 μL) were added to a 384 well microplate (Greiner Bio-One 781801) and PDHK reaction was performed at room temperature for 45 min (test compound well). DMSO (1.5 μL) was added to control wells instead of test compound. In addition, DMSO (1.5 μL) was added to blank wells instead of the test compound, and PDH solution was added instead of the PDH/hPDHK2 complex solution. To measure an inhibitory action of the test compound on the PDHK activity inherent in the PDH solution, a test compound was added and the PDH solution instead of the PDH/hPDHK2 complex solution was added to a blank+test compound well. […]

IC50	Structure (SMILES)
6.2 nM	C[C@H]1Cn2c(nnc2C2CC2c2ccccc2)-c2cnc([C@@](C)(O)C(F)(F)F)n21 (stereo partly shown) [Example 97]
15 nM	C[C@H]1Cn2nc(OCC(C)(C)C#N)cc2-c2cnc([C@@](C)(O)C(F)(F)F)n21 [Example 79]
19 nM	C[C@H]1Cn2nc(Oc3cc(C(F)(F)F)ncn3)cc2-c2cnc([C@@](C)(O)C(F)(F)F)n21 [Example 70]

The remaining lines, values behind:

Structure (SMILES)	IC50
CC(=O)N1CC(COc2cc3n(n2)C[C@H](C)n2c-3cnc2[C@@](C)(O)C(F)(F)F)C1 [Example 64]	19 nM
C[C@H]1Cn2nc(OCCN3CCCC3=O)cc2-c2cnc([C@@](C)(O)C(F)(F)F)n21 [Example 63]	14 nM
C[C@H]1Cn2c(nnc2C2(C(F)(F)F)CC2)-c2cnc([C@@](C)(O)C(F)(F)F)n21 [Example 40]	11 nM
C[C@H]1Cc2c(C(C)(C)O)noc2-c2cnc([C@@](C)(O)C(F)(F)F)n21 (racemic) [Example 25]	18 nM
